Values quoted from earlier work in patent publication US20220273822A1, “ANIMAL MODEL OF IDIOPATHIC PULMONARY FIBROSIS, ITS CONSTRUCTION METHOD AND USE” (National Institute of Biological Sciences, Beijing, priority 2019, published 2022).

Settings: IPF

**Q.** Which mortality does the source give for `COC(=O)c1ccc2c(c1)NC(=O)/C2=C(\Nc1ccc(N(C)C(=O)CN2CCN(C)CC2)cc1)c1ccccc1` [nintedanib] here?
**A.** tendency of reducing mortality

**Q.** And the survival time?
**A.** failed to show significantly increased survival time

**Q.** What does the source list for `Cc1ccc(=O)n(-c2ccccc2)c1` [pirfenidone]?
**A.** mortality: tendency of reducing mortality; survival time: failed to show significantly increased survival time
